Patent US9155795B2, “CXCR4 receptor compounds” (Anchor Therapeutics, Inc., priority 2010, dated 2015)
Where a SMILES comes first, the peptide text is derived from it. [ ]: non-standard residue; d: D form. The star is where a group is joined. Ala(3-Me-diazirin-3-yl) = CC1(C[C@H](N)C(=O)O)N=N1; Palmitoyl = CCCCCCCCCCCCCCCC(=O)*; hSer = N[C@@H](CCO)C(=O)O; Nle = CCCC[C@H](N)C(=O)O; Pra = C#CC[C@H](N)C(=O)O

Biological target: T1, CXCR4 (Homo sapiens, UniProt P61073)
T1 construct: CCRF-CEM cells, a human T-cell ALL line that endogenously expresses CXCR4; endogenous in cells; host or cells: CCRF-CEM (human T-cell acute lymphoblastic leukemia line)
T1 sequence (P61073 whole entry): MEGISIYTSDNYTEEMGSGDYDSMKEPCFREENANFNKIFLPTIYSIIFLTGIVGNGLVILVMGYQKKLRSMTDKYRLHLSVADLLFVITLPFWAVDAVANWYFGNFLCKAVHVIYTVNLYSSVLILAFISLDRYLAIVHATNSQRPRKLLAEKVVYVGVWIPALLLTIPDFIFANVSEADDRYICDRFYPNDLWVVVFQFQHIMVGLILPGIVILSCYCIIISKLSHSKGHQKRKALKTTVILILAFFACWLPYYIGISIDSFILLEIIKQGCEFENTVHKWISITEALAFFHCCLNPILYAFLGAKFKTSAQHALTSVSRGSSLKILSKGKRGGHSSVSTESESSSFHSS
Assay: Calcium flux assay, agonist mode, Flexstation (CCRF-CEM cells)
Type: cell-based
Conditions: CCRF-CEM, percent of maximum response compared with SDF-1α, read-out: % Intrinsic Activity
Excerpt: Calcium Flux Assay is one of the most popular cell-based GPCR functional assays. It most often uses calcium sensing fluorescent dyes such as fura2 AM, fluo-4 and Calcium-4 to measure changes in intracellular calcium concentration. It is used mainly to detect GPCR signaling via Gαq subunit. Activation of these Gq-coupled GPCRs leads to activation of phospholipase C, which subsequently leads to increase in inositol phosphate production. IP3 receptors on endoplasmic reticulum sense the change then release calcium into cytoplasm. Intracellular calcium binding to the fluorescent dyes can be detected by instruments that quantify fluorescent intensities, such as FLIPR Tetra, Flexstation (MDS) and FDSS (Hamamatsu). In addition, to assess Gq-couple receptor signaling, a calcium flux assay can also be used to study Gs and Gi couple receptors by co-expressing CNG (cyclic nucleotide gated calcium channel) or chimeric G-proteins (Gqi5, Gsi5 for example). Activation of some Gi-coupled receptors can also be detected by calcium flux assay via Gβγ mediated phospholipase C activation.
The calcium flux assay was used to assess the test compounds' ability to activate the CXCR4 receptor in CCRF-CEM cells (human T lymphoblasts from acute lymphoblastic leukemia). […] After dye loading by incubating with Calcium-4 dye at 37° C. for 1 hour, cell plates were read at 37° C. using the using the Flexstation 3 workstation. Receptor activation was assessed by measuring changes in fluorescent intensity after the addition of the test compounds or the reference agonist SDF-1α on the using the Flexstation 3 workstation. EC50
and percent intrinsic actively were derived from the data collected. Intrinsic activity refers to the efficacy of the test compound and is calculated as the percent of maximum response compared with the response of the reference standard (i.e., natural agonist, SDF-1α).

Row | Emax | SMILES
1 | 104% | CCCCCCCCCCCCCCCC(=O)NCC(=O)NCC(=O)N[C@@H](Cc1ccc(O)cc1)C(=O)N[C@@H](CCC(N)=O)C(=O)N[C@@H](CCCCN)C(=O)N[C@@H](CCCCN)C(=O)N[C@H](CC(C)C)C(=O)N[C@@H](CCCNC(=N)N)C(=O)N[C@@H](CO)C(=O)N[C@@H](C)C(=O)N[C@H](C(=O)N[C@@H](CC(=O)O)C(=O)N[C@@H](CCCCN)C(=O)N[C@@H](Cc1ccc(O)cc1)C(=O)N[C@@H](CCCNC(=N)N)C(=O)N[C@@H](CC(C)C)C(N)=O)[C@@H](C)O [Compound 39] (Palmitoyl-GGYQKK[dL]RSATDKYRL-NH2; C-terminus assumed)
2 | 77.7% | CCCCCCCCCCCCCCCC(=O)N[C@@H](CCOC)C(=O)NCC(=O)N[C@@H](Cc1ccc(O)cc1)C(=O)N[C@@H](CCC(N)=O)C(=O)N[C@@H](CCCCN)C(=O)N[C@@H](CCCCN)C(=O)N[C@@H](CC(C)C)C(=O)N[C@@H](CCCNC(=N)N)C(=O)N[C@@H](CO)C(=O)N[C@@H](CCOC)C(=O)N[C@H](C(=O)N[C@@H](CC(=O)O)C(=O)N[C@@H](CCCCN)C(=O)N[C@@H](Cc1ccc(O)cc1)C(=O)N[C@@H](CCCNC(=N)N)C(=O)N[C@@H](CC(C)C)C(N)=O)[C@@H](C)O [Compound 22] (Palmitoyl-[hSer](Me)GYQKKLRS[hSer](Me)TDKYRL-NH2)
3 | 91.1% | CCCCCCCCCCCCCCCC(=O)NCC(=O)NCC(=O)N[C@@H](Cc1ccc(O)cc1)C(=O)N[C@@H](CCC(N)=O)C(=O)N[C@@H](CCCCN)C(=O)N[C@@H](CCCCN)C(=O)N[C@@H](CC(C)C)C(=O)N[C@@H](CCCNC(=N)N)C(=O)N1CCC[C@@H]1C(=O)N1CCC[C@@H]1C(=O)N[C@@H](Cc1c[nH]cn1)C(=O)N[C@H](C(=O)N[C@@H](CC(=O)O)C(=O)N[C@@H](CCCCN)C(=O)N[C@@H](Cc1ccc(O)cc1)C(=O)N[C@@H](CCCNC(=N)N)C(=O)N[C@@H](CC(C)C)C(N)=O)[C@@H](C)O [Compound 32] (Palmitoyl-GGYQKKLR[dP][dP]HTDKYRL-NH2; C-terminus assumed)
4 | 85.7% | CCCCCCCCCCCCCCCC(=O)NCC(=O)NCC(=O)N[C@@H](Cc1ccc(O)cc1)C(=O)N[C@@H](CCC(N)=O)C(=O)N[C@@H](CCCCN)C(=O)N[C@@H](CCCCN)C(=O)N[C@@H](CC1(C)N=N1)C(=O)N[C@@H](CCCNC(=N)N)C(=O)N[C@@H](CO)C(=O)N[C@@H](C)C(=O)N[C@H](C(=O)N[C@@H](CC(=O)O)C(=O)N[C@@H](CCCCN)C(=O)N[C@@H](Cc1ccc(O)cc1)C(=O)N[C@@H](CCCNC(=N)N)C(=O)N[C@@H](CC(C)C)C(N)=O)[C@@H](C)O [Compound 37] (Palmitoyl-GGYQKK[Ala(3-Me-diazirin-3-yl)]RSATDKYRL-NH2; C-terminus assumed)
5 | 62.5% | CCCCCCCCCCCCCCCC(=O)NCC(=O)N[C@@H](Cc1ccc(O)cc1)C(=O)N[C@@H](CCC(N)=O)C(=O)N[C@@H](CCCCN)C(=O)N[C@@H](CCCCN)C(=O)N[C@@H](CC(C)C)C(=O)N[C@@H](CCCNC(=N)N)C(=O)N[C@@H](CO)C(=O)N[C@@H](CCCC)C(=O)N[C@H](C(=O)N[C@@H](CC(=O)O)C(=O)N[C@@H](CCCCN)C(=O)N[C@@H](Cc1ccc(O)cc1)C(=O)N[C@@H](CCCNC(=N)N)C(=O)N[C@H](C(N)=O)[C@@H](C)CC)[C@@H](C)O [Compound 20] (Palmitoyl-GYQKKLRS[Nle]TDKYRI-NH2; C-terminus assumed)
6 | 76.6% | C#CC[C@H](NC(=O)CCCCCCCCCCCCCCC)C(=O)NCC(=O)N[C@@H](Cc1ccc(O)cc1)C(=O)N[C@@H](CCC(N)=O)C(=O)N[C@@H](CCCCN)C(=O)N[C@@H](CCCCN)C(=O)N[C@@H](CC(C)C)C(=O)N[C@@H](CCCNC(=N)N)C(=O)N[C@@H](CO)C(=O)N[C@@H](CCSC)C(=O)N[C@H](C(=O)N[C@@H](CC(=O)O)C(=O)N[C@@H](CCCCN)C(=O)N[C@@H](Cc1ccc(O)cc1)C(=O)N[C@@H](CCCNC(=N)N)C(=O)N[C@@H](CC(C)C)C(N)=O)[C@@H](C)O [Compound 24] (Palmitoyl-[Pra]GYQKKLRSMTDKYRL-NH2; C-terminus assumed)

Same assay, conditions: calcium flux

Row | EC50 | SMILES
7 | 71.1 nM | CCCCCCCCCCCCCCCC(=O)NCC(=O)NCC(=O)N[C@@H](Cc1ccc(O)cc1)C(=O)N[C@@H](CCC(N)=O)C(=O)N[C@@H](CCCCN)C(=O)N[C@@H](CCCCN)C(=O)N[C@@H](CC1(C)N=N1)C(=O)N[C@@H](CCCNC(=N)N)C(=O)N[C@@H](CO)C(=O)N[C@@H](C)C(=O)N[C@H](C(=O)N[C@@H](CC(=O)O)C(=O)N[C@@H](CCCCN)C(=O)N[C@@H](Cc1ccc(O)cc1)C(=O)N[C@@H](CCCNC(=N)N)C(=O)N[C@@H](CC(C)C)C(N)=O)[C@@H](C)O [Compound 37] (Palmitoyl-GGYQKK[Ala(3-Me-diazirin-3-yl)]RSATDKYRL-NH2; C-terminus assumed)
